In brackets after ≈: the same amount, converted by molar mass. Starred links: 1 amine or outer side, 2 acyl side, 3 side chain; linkers in the order of their positions; H or OH if unused. Positions of bridges follow the written chain, without caps; N, C: chain ends. Non-standard residues stand in square brackets, D forms with d. Residues, ends and D or L forms follow the SMILES beside them. *: point of attachment. Decanoyl(3R-OH) = CCCCCCC[C@@H](O)CC(=O)*; azaDab = NCCN(N[*:1])C(=O)[*:2]; dDab = NCC[C@@H](N)C(=O)O; dDap = NC[C@@H](N)C(=O)O; Dab = NCC[C@H](N)C(=O)O
Columns and labels:
A. baumannii ATCC 19606 = details: ATCC 19606
How it was run: (§1)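 Mid-log cultures grown in Mueller Hinton broth at 37° C were tested by 2-fold broth microdilution at 5×10^5 CFU/mL final. Compounds were dissolved in water and tested over a final range of 32 to 0.015 μg/mL.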

A. baumannii GN_093 PmxR = details: GN 093 PmxR
How it was run: as §1

E. coli ATCC 25922 = details: ATCC 25922
How it was run: as §1

K. pneumoniae ATCC 13883 = details: ATCC 13883
How it was run: as §1

[1] = tested on: K. pneumoniae ATCC 700603, MDR; details: ATCC 700603
How it was run: as §1

[2] = tested on: K. pneumoniae ATCC BAA-2146, NDM-1 pos; details: ATCC BAA-2146
How it was run: as §1

[3] = tested on: K. pneumoniae GN_102 PmxR; details: GN 102 PmxR
How it was run: as §1

[4] = tested on: K. pneumoniae GN_106, PmxR; details: GN 106, PmxR
How it was run: as §1

P. aeruginosa ATCC 27853 = details: ATCC 27853
How it was run: as §1

[5] = tested on: P. aeruginosa GN_043, PmxR
How it was run: as §1

[6] = tested on: P. aeruginosa GN_105, PmxR; details: GN 105, PmxR
How it was run: as §1

[7] = tested on: S. aureus ATCC 25923, MSSA; details: ATCC 25923
How it was run: as §1

in vitro [8] = details: human
How it was run: (§2)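 Fluorescence read-out (excitation 560, emission 590) after a 2 h, 37 °C incubation with 5 μM resazurin, following 24 h compound treatment of cells plated at 4000 per well. CC50 values come from fitting dose–response curves of growth inhibition.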

Neisseria gonorrhoeae = experiment: MIC determination, Neisseria gonorrhoeae; format: cell-based
How it was run: as §1

[9] = In vitro nephrotoxicity, LDH release from primary human kidney cells; format: cell-based; details: pH 7.4
[10] = In vitro nephrotoxicity, GGT release from primary human kidney cells; format: cell-based; details: pH 7.4
How it was run: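 Primary proximal tubule cells from normal human renal cortex were collagenase-isolated and grown serum-free to 80–90% confluence. GGT release was measured on samples with 2.5 mM γ-glutamyl-p-nitroanilide plus glycylglycine in 50 mM Tris, pH 8.2. p-Nitroanilide formation was read at 410 nm.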

HEK293 cells = experiment: in vitro; details: human, 24 h
How it was run: as §2

in vitro [11] = details: human; remark: listed apart in the source
How it was run: as §2

HepG2 cells = experiment: in vitro; details: human, 24 h
How it was run: as §2

## CCCCCCC[C@@H](O)CC(=O)N[C@H](CN)C(=O)N[C@H]1CCNC(=O)[C@H](CC(C)C)NC(=O)[C@H](CCN)NC(=O)[C@H](CCN)NC(=O)[C@H](CC(C)C)NC(=O)[C@@H](Cc2ccccc2)NC(=O)[C@H](CCN)NC1=O [compound 6442, 3(R)OH-nC9CO-D-Dap-cyc[L-Dab-L-Dab-D-Phe-L-Leu-L-Dab-L-Dab-L-Leu]] ({Decanoyl(3R-OH)}-[dDap][Dab][Dab][dF]L[Dab][Dab]L; lactam 2-C)
A. baumannii ATCC 19606
  MIC, A. baumannii ATCC 19606: 4 µg/mL (≈ 3.88 µM)
A. baumannii GN_093 PmxR
  MIC A. baumannii GN_093 PmxR: 4 µg/mL (≈ 3.88 µM)
E. coli ATCC 25922
  MIC, E. coli ATCC 25922: 2 µg/mL (≈ 1.94 µM)
K. pneumoniae ATCC 13883
  MIC, K. pneumoniae ATCC 13883: 4 µg/mL (≈ 3.88 µM)
[1]
  MIC, K. pneumoniae ATCC 700603, MDR: 4 µg/mL (≈ 3.88 µM)
[2]
  MIC, K. pneumoniae ATCC BAA-2146, NDM-1 pos: 8 µg/mL (≈ 7.76 µM)
[3]
  MIC K. pneumoniae GN_102 PmxR: 2 µg/mL (≈ 1.94 µM)
[4]
  MIC K. pneumoniae GN_106, PmxR: 4 µg/mL (≈ 3.88 µM)
P. aeruginosa ATCC 27853
  MIC, P. aeruginosa ATCC 27853: 2 µg/mL (≈ 1.94 µM)
[5]; Table 6, polymyxin-resistant
  MIC P. aeruginosa GN_043, PmxR: 2 µg/mL (≈ 1.94 µM)
[6]
  MIC P. aeruginosa GN_105, PmxR: 2 µg/mL (≈ 1.94 µM)
[7]
  MIC, S. aureus ATCC 25923, MSSA: 16 µg/mL (≈ 15.5 µM)
In vitro [8]
  CC50 at 24 h: > 300 µM
Neisseria gonorrhoeae; strain F89
  MIC N. gonorrhoeae F89: 1.56 µg/mL (≈ 1.51 µM)
Neisseria gonorrhoeae; strain FA19 ATCC BAA-1838
  MIC N. gonorrhoeae FA19 ATCC BAA-1838: 1.56 µg/mL (≈ 1.51 µM)
Neisseria gonorrhoeae; strain FA1090 A25 ATCC 700825
  MIC N. gonorrhoeae FA1090 A25 ATCC 700825: 1.3 µg/mL (≈ 1.26 µM)
Neisseria gonorrhoeae; strain H041
  MIC N. gonorrhoeae H041: 1.56 µg/mL (≈ 1.51 µM)
[9]
  CC50: > 128 µg/mL
[10]
  CC50: > 128 µg/mL

## CCCCCCC[C@@H](O)CC(=O)N[C@H](CCN)C(=O)N[C@H]1CCNC(=O)[C@H](CC(C)C)NC(=O)[C@H](CCN)NC(=O)N(CCN)NC(=O)[C@H](CC(C)C)NC(=O)[C@@H](Cc2ccccc2)NC(=O)[C@H](CCN)NC1=O [compound 8641, 3(R)OH-nC9CO-D-Dab-cyc[L-Dab-L-DAB-D-Phe-L-Leu-azaDab-L-Dab-L-Leu]] ({Decanoyl(3R-OH)}-[dDab][Dab][Dab][dF]L[azaDab][Dab]L; lactam 2-C)
A. baumannii ATCC 19606
  MIC A. baumannii ATCC 19606: 8 µg/mL (≈ 7.65 µM)
A. baumannii GN_093 PmxR
  MIC A. baumannii Cl Ptyela 10073 4512:2, PmxR: 32 µg/mL (≈ 30.6 µM)
E. coli ATCC 25922
  MIC E. coli ATCC 25922: 4 µg/mL (≈ 3.83 µM)
K. pneumoniae ATCC 13883
  MIC K. pneumoniae ATCC 13883: 4 µg/mL (≈ 3.83 µM)
[1]
  MIC K. pneumoniae ATCC 700603, MDR: 4 µg/mL (≈ 3.83 µM)
[2]
  MIC K. pneumoniae ATCC BAA-2146, NDM-1 pos: 8 µg/mL (≈ 7.65 µM)
[3]
  MIC K. pneumoniae Cl Koprana 10065 0661:1 PmxR: 2 µg/mL (≈ 1.91 µM)
[4]
  MIC K. pneumoniae Cl 183-16357-20352, PmxR: 4 µg/mL (≈ 3.83 µM)
P. aeruginosa ATCC 27853
  MIC P. aeruginosa ATCC 27853: 2 µg/mL (≈ 1.91 µM)
[5]; strain name as in Table 11
  MIC, P. aeruginosa FADDI-PA070, PmxR: 2 µg/mL (≈ 1.91 µM)
[6]
  MIC P. aeruginosa PA9704, PmxR: 2 µg/mL (≈ 1.91 µM)
[7]
  MIC S. aureus ATCC 25923, MSSA: 32 µg/mL (≈ 30.6 µM)
In vitro [8]
  CC50 at 24 h: > 300 µM
HEK293 cells
  CC50: > 300 µM
In vitro [11]
  CC50 at 24 h: > 300 µM
HepG2 cells
  CC50: > 300 µM
[9]
  CC50: > 128 µg/mL
[10]
  CC50: > 128 µg/mL
